Entries after “also recorded” stand apart in the source; their conditions may differ. Structures can show the parent of a compound that is named as a salt.
Key:
NFAT = test: Endogenous NFAT nuclear translocation; assay type: cell-based; conditions: high or intermediate doses
Description: (§1) SFIGS. […] (SFIG. 4B) Representative images of GFP-TFEB HeLa cells treated with 3.3 μM AD or in combination with 5 μM FK506, 10 μM CsA or both. […] Scale bar, 20 μm. […] Scale bar, 20 μm. […] Scale bar, 20 μm. (SFIGS. 4F-G) Immunoblots of wide-type HeLa cells treated with various doses (starting from 3.3 μM with a 3-fold dilution, and right-most lane is DMSO) of AD and IKA.

TFEB = test: GFP-TFEB nuclear translocation (high-content screen, dose-response, confocal imaging); assay type: cell-based, human; conditions: for effect of calcineurin inhibition (FK506, CsA, siPPP3CB) on TFEB activation: 5 μM FK506, 10 μM CsA or siPPP3CB; for effect of Compound C (AMPK inhibitor) and STO-609 (CaMKKβ inhibitor) on induced TFEB nuclear translocation: 10 μM compound C, 25 μM STO-609, 4 hr; for effect of IP3R inhibitor Xestosporin C or siIP3R1 on induced TFEB nuclear translocation: 25 μM Xesto 1 hr pretreatment, time-dependent; for effect of GPN pretreatment (lysosomal Ca2+ depletion) on induced TFEB nuclear translocation: 200 μM GPN, 30 min pretreatment; for hit status in the TFEB screen overlapping with the autophagy (GFP-LC3) screen: compounds added for 4 hr, overlap with top 30 hits of autophagy screen; for effect of RNAi-mediated MCOLN1 depletion on induced TFEB nuclear translocation: siMCOLN1
Description: GFP-TFEB HeLa cells were seeded in 384-well plates. Compounds were added for 4 hr the following day. Bafilomycin A1 (250 nM) treated cells were used as positive controls and DMSO-treated cells as negative controls. […] Images were collected using 405 nm and 488 nm laser lines with DAPI and FITC emission filters. Images were analyzed using the GE IN Cell Analyzer Workstation software. Briefly, nuclei were segmented using the Hoechst channel and the cytoplasm was segmented using the GFP channel. For each cell, the mean GFP intensity in each compartment was measured and used to calculate the nuclear to cytoplasmic (N/C) TFEB-GFP ratio. The same method as mentioned above was used to generate the top 30 compounds with highest condensed activity values and robust Z score values.
GFP-TFEB HeLa cells treated with compounds or DMSO were fixed and stained with Hoechst. Images from at least 3 different fields per sample were acquired using a 40× objective on a Zeiss confocal microscope and analyzed with ImageJ. 20-30 cells were evaluated from each image for each sample, and 3 independent experiments were performed to generate the graphed values.

[1] = system: C57BL/6J mice fed a high-fat diet; test: High-fat diet mouse model for in vivo compound delivery; conditions: for known TFEB target genes mRNA in liver and muscle: HFD mice treated with AD or IKA (PEG-PLA nanoparticles i.v.); for high fat diet-induced steatosis (liver histology): 3 weeks, DG oral, AD and IKA i.v. in PEG-PLA nanoparticles; for body weight/composition and blood chemistry: AD 1 mg kg-1 or IKA 0.5 mg kg-1 in PEG-PLA nanoparticles i.v.; for expression of Ppargc1α, Ppar1α and Fgf21: liver
Description: Total RNA was isolated from MEFs or mouse tissues using RNeasy minipreps (QIAGEN). Complementary DNA (cDNA) was synthesized with the High capacity RNA-to-cDNA kit (Applied biosystems), and qRT-PCR was performed using TaqMan® Gene Expression Assays (Applied biosystems) for the indicated genes on the LightCycler System (Roche Applied Science). Gapdh was used to normalize RNA input. The mouse probes used in this study were: Tfeb (Mm00448968_m1), Ctsa (Mm00447197_m1), Mcoln 1 (Mm00522550_m1), Ppara (Mm00440939_m1), Ppargc1a (Mm01208835_m1), Fgf21 (Mm00840165_g1) and Gapdh (Mm99999915_g1), and the human probes used were TFEB (Hs00292981_m1), CTSA (Hs00264902_m1), MCOLN1 (Hs01100653_m1), PPARGC1A (Hs00173304_m1), PPARA (Hs00947536_m1), UVRAG (Hs01075434_m1), GAPDH (Hs02758991_g1) and p62/SQSTM1 (Hs01061917_g1). All probes were from Thermo Fisher Scientific Inc.
All mouse experiments were approved and carried out following the ethical guidelines established by the Institutional Animal Care and Use Committee at UT Southwestern Medical Center. The investigators were not blinded to allocation during experiments and outcome assessment. Four to six weeks old male C57BL/6J mice were randomly divided into groups fed a regular diet (Harlan Teklad) or a high-fat diet (HFD) containing 60% fat (Research Diets). After one month, the HFD mice were grouped so that the average body weights of mice in each group were similar. The grouped mice were orally administered DG (2.5 mg kg-1) or its solvent 50% HPβCD solution, or intravenously injected with AD (1 mg kg-1) or IKA (0.5 mg kg-1) encapsulated in the PEG-PLA nanoparticles or empty nanoparticles, three times a week for three weeks. Body weight and food intake were measured twice a week before treatment and every day after treatment in the middle of the light period. The cage tops containing food pellets were weighed, as well as the spilled food in the bottom of the cage. The food intake was corrected for spillage.
At the end of the treatment, the body composition of each mouse was analyzed by EchoMRI (Echo Medical Systems LLC) according to the manufacturer's instructions.
For glucose tolerance tests, the mice were orally administered 1 mg g-1 glucose (Sigma-Aldrich) after a 4 hr fast. For insulin tolerance tests, the mice were intraperitoneally injected with 0.75 milliunit g-1 insulin (Humulin R, Eli Lily) after a 4 hr fast. Blood was drawn from tail veins at indicated time points after injection. Experiments were performed during light period. Serum glucose levels were analyzed using commercial glucose reagents (Sigma).
At the end of the treatment, blood was collected from the orbital plexus under anesthesia. Serum was frozen in aliquots and stored at −20° C. for further analysis. Specific enzyme kits were used to detect serum levels of triglyceride (Fisher Scientific), cholesterol (Fisher Scientific) and glucose (Sigma-Aldrich).
Livers and other organs were dissected and embedded in OCT. Cryostat sections were cut at 10 μm. The sections were stored at −80° C. and subjected to haematoxylin/eosin and oil red O staining following standard protocol. The immunohistochemistry (IHC) staining of p62 was performed following the protocol of Cell Signaling Technology. The primary antibody was from Abcam, and the SignalStain® boost IHC detection reagent and DAB substrate kit were from Cell Signaling Technology. All the sections were imaged using a NanoZoomer 2.0-HT Digital slide scanner (Hamamatzu) and processed using NDP viewer software.

AMPK = AMPK and ACC phosphorylation immunoblots; assay type: cell-based, human; conditions: HeLa cells, dose-dependent
Description: as §1

[2] = HFD mice, three times a week for three weeks
[3] = HFD mice, DG 2.5 mg kg-1 oral, three times a week for three weeks

Row | SMILES | nuclear translocation of NFAT (NFAT) | reversal of effect on TFEB by cell-permeable pyruvate (TFEB) | effect of calcineurin inhibition (FK506, CsA, siPPP3CB) on TFEB activation (TFEB) | effect of Compound C (AMPK inhibitor) and STO-609 (CaMKKβ inhibitor) on induced TFEB nuclear translocation (TFEB) | effect of IP3R inhibitor Xestosporin C or siIP3R1 on induced TFEB nuclear translocation (TFEB) | effect of GPN pretreatment (lysosomal Ca2+ depletion) on induced TFEB nuclear translocation (TFEB) | effect of RNAi-mediated MCOLN1 depletion on induced TFEB nuclear translocation (TFEB) | known TFEB target genes mRNA in liver and muscle [1] | high fat diet-induced steatosis (liver histology) ([1]; HFD mice) | body weight/composition and blood chemistry [1, 2] | expression of Ppargc1α, Ppar1α and Fgf21 ([1]; HFD mice) | activating phosphorylation of AMPK and its substrate ACC (AMPK) | also measured
1 | CCCCC(CC)CNC(=N)NC(=N)NCCCCCCNC(=N)NC(=N)NCC(CC)CCCC (stereo not shown) [AD, alexidine dihydrochloride] | induced dose-dependent nuclear translocation | reversed | block TFEB activation | inhibited | attenuated | sufficient to disrupt TFEB nuclear translocation | suppressed | upregulated in the liver rather than in the muscle | amelioration | significant normalization | upregulation | induced activating phosphorylation | hit status in the TFEB screen overlapping with the autophagy (GFP-LC3) screen (TFEB; dihydrochloride): top 18 hits; also recorded: top scoring hits
2 | C[C@H]1O[C@@H](O[C@H]2[C@@H](O)C[C@H](O[C@H]3[C@@H](O)C[C@H](O[C@H]4CC[C@@]5(C)[C@H](CC[C@@H]6[C@@H]5C[C@@H](O)[C@]5(C)[C@@H](C7=CC(=O)OC7)CC[C@]65O)C4)O[C@@H]3C)O[C@@H]2C)C[C@H](O)[C@@H]1O [DG, digoxin, reference compound] | not | not |  | not | attenuated | sufficient to disrupt TFEB nuclear translocation | suppressed |  | amelioration |  | upregulation | not | effect of calcineurin perturbation on TFEB activation (TFEB; compound at EC50): inhibited to some extent; effect of calcineurin perturbation on TFEB activation (TFEB; compound at EC90): resistant; hit status in the TFEB screen overlapping with the autophagy (GFP-LC3) screen (TFEB): top 18 hits; also recorded: top scoring hits; body composition [1, 3]: normalized; body weight [1, 3]: normalized; circulating cholesterol [1, 3]: normalized; circulating glucose [1, 3]: normalized; circulating insulin levels [1, 3]: normalized; circulating triglycerides [1, 3]: normalized
3 | CC[C@H]1[C@@H]2C=C[C@@H]3[C@H]4C/C=C\C(=O)NCCC[C@@H]5NC(=O)/C(=C(O)/C=C/[C@@H]4C[C@@H]3[C@H]2C[C@H]1C)C5=O [IKA, ikarugamycin] | not | reversed | calcineurin independent | inhibited | attenuated | almost no effect |  | upregulated in the liver rather than in the muscle | amelioration | significant normalization | upregulation | induced activating phosphorylation | effect of thapsigargin (ER Ca2+ depletion) on induced TFEB nuclear translocation (TFEB; 300 nM TG, 30 min): selectively decreased

Source: patent US20200333357A1, “NOVEL TFEB PATHWAY AGONISTS FOR METABOLIC DISEASES AND AGEING” (The Board of Regents of the University of Texas System, priority 2017, published 2020)
